Experimental data taken from ChEMBL document CHEMBL4251603, “Structure-activity studies on N-Substituted tranylcypromine derivatives lead to selective inhibitors of lysine specific demethylase 1 (LSD1) and potent inducers of leukemic cell differentiation” (Eur J Med Chem, 2018).
The source made the active and inactive calls. The calls are words filed in the database; no cut-off is given here.

How the values were obtained:
[1] = target: Lysine-specific histone demethylase 1A (Homo sapiens, UniProt O60341)
[2] = system: SJRH30; test: Potentiation of JNJ-26481585-induced cell death in human Rh30 cells after 72 hrs by propidium iodide/Hoechst 33342 staining based fluorescence microscopic analysis; assay type: functional
[3] = system: SJRH30; test: Induction of cell death in human Rh30 cells at 50 to 100 nM after 72 hrs by propidium iodide/Hoechst 33342 staining based fluorescence microscopic analysis; assay type: functional
[4] = target: T1, Amine oxidase [flavin-containing] A (Homo sapiens, UniProt P21397)
T1 sequence (P21397 whole entry): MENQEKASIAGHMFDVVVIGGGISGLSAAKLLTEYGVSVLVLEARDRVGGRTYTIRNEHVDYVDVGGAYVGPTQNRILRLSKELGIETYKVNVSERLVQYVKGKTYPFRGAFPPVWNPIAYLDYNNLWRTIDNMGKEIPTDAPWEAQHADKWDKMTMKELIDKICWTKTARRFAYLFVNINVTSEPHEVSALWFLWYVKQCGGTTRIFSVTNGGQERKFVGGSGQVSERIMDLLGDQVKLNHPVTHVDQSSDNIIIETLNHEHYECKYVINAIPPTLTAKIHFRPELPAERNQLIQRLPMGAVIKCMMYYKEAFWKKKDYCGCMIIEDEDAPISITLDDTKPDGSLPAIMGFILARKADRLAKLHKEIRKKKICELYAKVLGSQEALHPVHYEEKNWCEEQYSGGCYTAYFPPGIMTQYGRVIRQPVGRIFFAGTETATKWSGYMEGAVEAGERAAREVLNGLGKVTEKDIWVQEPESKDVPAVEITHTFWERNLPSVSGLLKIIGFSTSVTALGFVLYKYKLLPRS

[5] = system: THP-1; test: cells; conditions: Homo sapiens, THP-1, 5 min, read-out: INH
[6] = target: T2, MAO-B (Homo sapiens, UniProt P27338); test: (§1) Inhibition of MAO-B (unknown origin) at 250 uM using beetle luciferin derived luminogenic substrate preincubated for 15 mins followed by substrate addition measured after 60 mins by MAO-Glo assay relative to control; conditions: MAO-B enzyme (unknown origin), probe beetle luciferin derived luminogenic substrate
T2 sequence (P27338 whole entry): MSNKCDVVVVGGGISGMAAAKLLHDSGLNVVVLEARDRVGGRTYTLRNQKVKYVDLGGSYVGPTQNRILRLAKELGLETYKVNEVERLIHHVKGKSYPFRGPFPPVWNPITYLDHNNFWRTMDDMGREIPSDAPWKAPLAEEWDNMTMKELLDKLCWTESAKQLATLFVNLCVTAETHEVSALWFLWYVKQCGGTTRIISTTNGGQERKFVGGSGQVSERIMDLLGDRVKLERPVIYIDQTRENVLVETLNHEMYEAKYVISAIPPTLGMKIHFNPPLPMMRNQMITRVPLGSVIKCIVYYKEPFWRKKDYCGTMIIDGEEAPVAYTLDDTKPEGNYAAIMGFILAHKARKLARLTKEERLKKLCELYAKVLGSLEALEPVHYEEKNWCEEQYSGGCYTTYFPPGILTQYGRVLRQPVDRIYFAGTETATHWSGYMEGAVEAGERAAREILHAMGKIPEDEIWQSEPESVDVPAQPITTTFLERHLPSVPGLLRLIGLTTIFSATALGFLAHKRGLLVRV

[7] = target: T3, Amine oxidase [flavin-containing] B (Homo sapiens, UniProt P27338); test: as §1; conditions: 1 h, 250 µM
T3 sequence (P27338 whole entry): T2 sequence (P27338 whole entry)

## O=C(O)c1ccc(CN2CCC(CN[C@H]3C[C@@H]3c3ccccc3)CC2)cc1
[1]
  IC50: 1.7 µM
[2]
  Activity: Active
[3]
  Activity: Active

## Cc1ccc(-c2ncc(OCC3CCNC3)cc2-c2ccc(C#N)cc2)cc1 (centres undefined)
[1]
  IC50: 0.09 µM

## NS(=O)(=O)c1ccc(CN[C@H]2C[C@@H]2c2ccccc2)cc1 (relative stereo)
[4]
  IC50: 21.6 µM
[2]
  Activity: Active
[3]
  Activity: Active
[5]
  inhibition at 0.05 µM: 80%
[6]
  inhibition at 1 h, 250 µM: 42%

## CNS(=O)(=O)c1ccc(CN[C@H]2C[C@@H]2c2ccccc2)cc1 (relative stereo)
[4]
  IC50: 17.1 µM
[2]
  Activity: Active
[3]
  Activity: Active
[5]
  inhibition at 0.05 µM: 80%
[7]
  inhibition (INH): Not Active
